Measured values taken from patent publication US20250327793A1, “METHODS OF IDENTIFYING COMPOUNDS THAT MODULATE LAUNDRY MALODOR, MOLDY MALODOR, OR SWEAT MALODOR” (Firmenich SA, priority 2017, published 2025).
pIC50: −log10 of the molar value. Counter-ions that a name gives are not always drawn.

Tests used:
[1] = biological target: T1, OR51E1 olfactory receptor (Homo sapiens, UniProt Q8TCB6, K299R); assay: Butyric acid olfactory receptor antagonist cell-based inhibitory dose-response assay
T1 construct: expressed in transfected cells
T1 sequence (Q8TCB6 2-318 K299R limits assumed): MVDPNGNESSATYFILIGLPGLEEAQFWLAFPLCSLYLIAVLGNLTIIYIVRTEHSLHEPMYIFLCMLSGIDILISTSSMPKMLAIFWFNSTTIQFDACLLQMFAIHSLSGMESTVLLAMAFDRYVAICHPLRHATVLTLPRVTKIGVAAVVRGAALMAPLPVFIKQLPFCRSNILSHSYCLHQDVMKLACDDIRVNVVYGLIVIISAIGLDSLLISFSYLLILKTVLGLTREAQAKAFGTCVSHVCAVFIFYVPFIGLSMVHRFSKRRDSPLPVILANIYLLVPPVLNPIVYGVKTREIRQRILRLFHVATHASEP

[2] = system: T2, OR11A1 or OR2M3 olfactory receptor; assay: Geonol olfactory receptor antagonist cell-based inhibitory dose-response assay; set-up: species or system human; conditions: Table 2; geonol induced receptor activity, geonol at EC50
T2 construct: fused on or other part: Possibly N-terminal FLAG, Rho and/or Lucy tags

human sensory panel = assay: Sensory evaluation of geonol earthy/moss odor in binary mixtures with antagonists; type: in vivo; conditions: percentage of geonol malodor (earthy/moss odor) remaining in binary iso-intense mixture vs REF; * = statistically different from geonol alone
Text: Sensory Evaluation: Five 16 oz glass jars containing either REF (geonol only), geonol only control, antagonist only, mixture of geonol and isointense antagonist, or mixture of geonol and low intensity antagonist were presented to the panelists (last four samples were randomized across panelists). The panelists were asked to familiarize themselves with the earthy/moss odor quality from the REF jar first, then rate the pleasantness, earthy/moss odor intensity and overall odor intensity of the next four samples on a 0-10 linear scale. The inter-stimulus interval between the samples was two minutes to avoid adaptation.

[3] = Table 4, butyric acid at single activating concentration (EC94)
[4] = Table 5, agonist concentration not given
[5] = Table 5, butyric acid olfactory receptor antagonists, agonist concentration not given

| Compound | Inhibition (%) ([1]; Table 4, butyric acid at EC94) | pIC50 [1, 3] | other results |
| --- | --- | --- | --- |
| CC(=O)OCC1(C)C(C)C(C)C23CCC(CC12)C3 (stereo not drawn) [(2,3,4-trimethyl-4-tricyclo[5.2.1.0^{1,5}]decanyl)methyl acetate] |  |  | Inhibition (%) [1, 4]: 27%; pIC50 [1, 5]: 4.22 |
| CC1C=CCC12CCCC(C)(C)C2=O (stereo not drawn) [4,9,9-trimethylspiro[4.5]dec-2-en-10-one] | 102% | 3.57 |  |
| CCCCCC/C=C/C=O [nonylenic aldehyde] |  |  | % Inhibition [2]: 30% |
| COC1C(C)(C)CCC12CCCC2 (stereo not drawn) [4-methoxy-3,3-dimethylspiro[4.4]nonane] | 105% | 3.47 |  |
| CC(=O)OC1C(C)(C)CCCC12CC(C)=C(C)C2 (stereo not drawn) [(2,3,9,9-tetramethylspiro[4.5]dec-2-en-10-yl) acetate] | 116% | < 3.22 |  |
| CC(=O)C1(C)CC(C)C23CCC(CC12)C3 (stereo not drawn) [1-(2,4-dimethyl-4-tricyclo[5.2.1.0^{1,5}]decanyl)ethanone] |  |  | Inhibition (%) [1, 4]: 26%; pIC50 [1, 5]: 4.22 |
| CC(=NO)C1C(C)C(C)C23CCC(CC12)C3 (stereo not drawn) [~{N}-[1-[(1~{S},7~{R})-2,3-dimethyl-4-tricyclo[5.2.1.0^{1,5}]decanyl]ethylidene]hydroxylamine] |  |  | Inhibition (%) [1, 4]: 19%; pIC50 [1, 5]: 4.12 |
| CC1C=CCC(C)C1C(O)C(C)(C)C (stereo not drawn) [1-(2,6-dimethylcyclohex-3-en-1-yl)-2,2-dimethylpropan-1-ol] | 31% | 3.49 |  |
| CC1CC(C)(C=NO)C2C[C@H]3CC[C@]12C3 (stereo partly drawn) [~{N}-[[(1~{S},7~{R})-2,4-dimethyl-4-tricyclo[5.2.1.0^{1,5}]decanyl]methylidene]hydroxylamine] |  |  | pIC50 [1, 5]: 4.05 |
| CC(=O)OC(C)C1(C)CC(C)C23CCC(CC12)C3 (stereo not drawn) [1-(2,4-dimethyl-4-tricyclo[5.2.1.0^{1,5}]decanyl)ethyl acetate] |  |  | Inhibition (%) [1, 4]: 34%; pIC50 [1, 5]: 4.26 |
| CC(=O)OCCc1ccccc1 [phenyl ethyl acetate] |  |  | % Remaining in human sensory tests (human sensory panel): 47* % |
| isopropyl quinoline |  |  | % Remaining in human sensory tests (human sensory panel): 110% |
| OCCc1ccccc1 [phenylethylol] |  |  | % Remaining in human sensory tests (human sensory panel): 58% |
| CC1=CCC2(CCCCC2O)C(C(C)C)C1 (stereo not drawn) [3-methyl-5-propan-2-ylspiro[5.5]undec-2-en-11-ol] | 144% | 3.44 |  |
| CC(=O)OC(C)C1CC(C)C23CCC(CC12)C3 (stereo not drawn) [1-(2-methyl-4-tricyclo[5.2.1.0^{1,5}]decanyl)ethyl acetate] |  |  | Inhibition (%) [1, 4]: 23%; pIC50 [1, 5]: 4.01 |
| CC1C(C)C23CCC(CC2C1(C)C=O)C3 (stereo not drawn) [2,3,4-trimethyltricyclo[5.2.1.0^{1,5}]decane-4-carbaldehyde] |  |  | Inhibition (%) [1, 4]: 28%; pIC50 [1, 5]: 3.57 |
| CC(=O)OC1C(C)(C)CCCC12CC(C)(C)C(C)(C)C2 (stereo not drawn) [(2,2,3,3,9,9-hexamethylspiro[4.5]decan-10-yl) acetate] | 39% | 3.37 |  |
| CC(=O)OC1C(C)(C)CCC12CC=CC2 (stereo not drawn) [(8,8-dimethylspiro[4.4]non-2-en-9-yl) acetate] | 107% | 3.31 |  |
| CC(=NO)C1(C)C(C)C(C)[C@]23CC[C@H](CC12)C3 (stereo partly drawn) [~{N}-[1-[(1~{R},7~{R})-2,3,4-trimethyl-4-tricyclo[5.2.1.0^{1,5}]decanyl]ethylidene]hydroxylamine] |  |  | pIC50 [1, 5]: 4.10 |
| CC(=O)[C@@]1(C)C(C)[C@H](C)[C@@]23CC[C@H](CC12)C3 (stereo partly drawn) [1-[(1~{S},2~{S},4~{S},7~{R})-2,3,4-trimethyl-4-tricyclo[5.2.1.0^{1,5}]decanyl]ethanone] |  |  | pIC50 [1, 5]: 4.49 |

Continued, in another order:

| Inhibition (%) ([1]; Table 4, butyric acid at EC94) | pIC50 [1, 3] | Compound | other results |
| --- | --- | --- | --- |
| 115% | 4.12 | C=CCC1(C(C)C=C)CCCC(C)(C)C1=O (stereo not drawn) [2-but-3-en-2-yl-6,6-dimethyl-2-prop-2-enylcyclohexan-1-one] |  |
| 33% | 3.92 | COC1C(C)(C)CCCC12CC=CC2 (stereo not drawn) [10-methoxy-9,9-dimethylspiro[4.5]dec-2-ene] |  |
| 62% | 4.29 | CC(=O)OC1C(C)(C)CCCC12CC(C)C(C)C2 (stereo not drawn) [(2,3,9,9-tetramethylspiro[4.5]decan-10-yl) acetate] |  |
| 89% | 4.28 | CC(=O)OC(C1C(C)C=C(C)CC1C)C(C)(C)C (stereo not drawn) [[2,2-dimethyl-1-(2,4,6-trimethylcyclohex-3-en-l-yl)propyl] acetate] |  |
| 69% | 4.59 | CC1=C(C)CC2(CCCC(C)(C)C2OC=O)C1 (stereo not drawn) [(2,3,9,9-tetramethylspiro[4.5]dec-2-en-10-yl) formate] |  |
| 10% | 3.70 | CC1=C(C)CC2(CCC(C)(C)C2=O)C1 [2,3,8,8-tetramethylspiro[4.4]non-2-en-9-one] |  |
| 61% | 4.00 | C=CCC1(OC)C(C)CCCC1C (stereo not drawn) [1-methoxy-2,6-dimethyl-1-prop-2-enylcyclohexane] |  |
| 12% | 3.92 | CC1CC2(CCCC(C)(C)C2O)CC1C (stereo not drawn) [2,3,9,9-tetramethylspiro[4.5]decan-10-ol] |  |
| 22% | 4.09 | CC1=CC(C)C2(CCCC(C)(C)C2O)C1 (stereo not drawn) [2,4,9,9-tetramethylspiro[4.5]dec-2-en-10-ol] |  |
| 119% | 4.45 | C=C(C)CC1(CC(=C)C)CCC(C)(C)C1O (stereo not drawn) [2,2-dimethyl-5,5-bis(2-methylprop-2-enyl)cyclopentan-1-ol] |  |
| 52% | 4.16 | CC1CCCCC12CCCCC2O (stereo not drawn) [11-methylspiro[5.5]undecan-5-ol] |  |
| 101% | 3.62 | CC(=O)OC(C1C(C)CC(C)CC1C)C(C)(C)C (stereo not drawn) [[2,2-dimethyl-1-(2,4,6-trimethylcyclohexyl)propyl] acetate] |  |
| 104% | 4.15 | CC(=O)OC1C(C)(C)CCCC12CC=C(C)CC2C (stereo not drawn) [(3,5,10,10-tetramethylspiro[5.5]undec-2-en-11-yl) acetate] |  |
| 129% | 4.35 | CC1CC=CCC12CCCC(C)(C)C2OC=O (stereo not drawn) [(5,10,10-trimethylspiro[5.5]undec-2-en-11-yl) formate] |  |
| 54% | 4.11 | C[C@H]1CCCC2(CCCC[C@@H]2C)[C@@H]1O (single isomer, unassigned) [(4~{S},5~{R},6~{S},11~{S})-4,11-dimethylspiro[5.5]undecan-5-ol] |  |
| 63% | 3.96 | CC1=CC(C)C2(CCCC(C)(C)C2=O)C1 (stereo not drawn) [2,4,9,9-tetramethylspiro[4.5]dec-2-en-10-one] |  |
| 103% | 4.33 | C=C(C)CC1(CC(=C)C)CCCC(C)(C)C1=O [2,2-dimethyl-6,6-bis(2-methylprop-2-enyl)cyclohexan-1-one] |  |
| 72% | 4.14 | CC(=O)OC1C(C)(C)CCCC12C(C)C=CCC2C (stereo not drawn) [(1,5,10,10-tetramethylspiro[5.5]undec-3-en-11-yl) acetate] |  |
| 37% | 4.12 | C=C1C(C)(C)CCCC12CC1(C)OC1(C)C2 (stereo not drawn) [1,1′,1′,5-tetramethyl-2′-methylidenespiro[6-oxabicyclo[3.1.0]hexane-3,3′-cyclohexane]] |  |
| 100% | 3.62 | COC1C(C)(C)CCC12CC=CC2 (stereo not drawn) [9-methoxy-8,8-dimethylspiro[4.4]non-2-ene] |  |
| 32% | 4.04 | CC(=O)OC1C(C)(C)CCCC12CC=CC2 (stereo not drawn) [(9,9-dimethylspiro[4.5]dec-2-en-10-yl) acetate] |  |
| 106% | 4.31 | CC(=O)OC1C(C)(C)CCCC12CC=CC2C (stereo not drawn) [(4,9,9-trimethylspiro[4.5]dec-2-en-10-yl) acetate] |  |
| 131% | 4.46 | CC(=O)OC1C(C)(C)CCCC12CC(C)=CC2C (stereo not drawn) [(2,4,9,9-tetramethylspiro[4.5]dec-2-en-10-yl) acetate] |  |
| 23% | 3.87 | CC1(C)CCCC2(CC=CC2)C1=O [9,9-dimethylspiro[4.5]dec-2-en-10-one] |  |
|  | 3.77 | CC(=O)O[C@H]([C@H]1CCCC[C@@H]1C)C(C)(C)C (racemic) [[(1~{R})-2,2-dimethyl-1-[(1~{S},2~{S})-2-methylcyclohexyl]propyl] acetate] |  |
| 91% | 4.36 | CC1(C)CCCC2(CC=CC2)C1O (stereo not drawn) [9,9-dimethylspiro[4.5]dec-2-en-10-ol] |  |
| 110% | 3.90 | C=C(C)CC1(CC(=C)C)CCCC(C)(C)C1O (stereo not drawn) [2,2-dimethyl-6,6-bis(2-methylprop-2-enyl)cyclohexan-1-ol] |  |
| 16% | 4.10 | CC1=C(C)CC2(CCCC(C)(C)C2O)C1 (stereo not drawn) [2,3,9,9-tetramethylspiro[4.5]dec-2-en-10-ol] |  |
| 82% | 4.29 | C=C(C)CC1(CC(=C)C)CCC(C)(C)C1=O [2,2-dimethyl-5,5-bis(2-methylprop-2-enyl)cyclopentan-1-one] |  |
